From patent publication US20030113810A1, “Novel assay” (priority 2000, published 2003)

Columns and labels:
rGPR41 [1] = target: T1, rGPR41 (Rattus norvegicus, UniProt B2GV46); test: Yeast reporter assay, rGPR41 in MMY22, CPRG substrate (3-hydroxybutyrate study); type: cell-based; parameters: expressed in transfected cells; host or cells: S. cerevisiae MMY22 (A1, A5; Gpa1/Gαo integrated) or MMY11 + pRS314-Gpa1/Gαo (A4), transformed with p426GPD-rGPR41; conditions: for agonism at rGPR41 (in words): FIG. 9
T1 sequence (B2GV46 1-319): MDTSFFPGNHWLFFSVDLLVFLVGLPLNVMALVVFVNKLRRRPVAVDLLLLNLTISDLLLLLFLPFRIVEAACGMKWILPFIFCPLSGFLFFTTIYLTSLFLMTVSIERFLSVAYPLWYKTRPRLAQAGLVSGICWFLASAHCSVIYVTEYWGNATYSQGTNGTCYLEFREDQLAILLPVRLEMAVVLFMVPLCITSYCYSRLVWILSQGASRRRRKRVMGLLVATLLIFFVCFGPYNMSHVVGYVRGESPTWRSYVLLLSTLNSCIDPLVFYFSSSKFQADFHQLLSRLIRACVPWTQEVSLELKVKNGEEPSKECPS
Experimental: A study was made of the agonism of rGPR41 by the naturally-occurring ketone body compound, 3-hydroxybutyrate. Experiments were performed as described above, using yeast cells of strain MMY22 transformed with rGPR41 expression plasmid p462GPD-rGPR41, except that the substrate CPRG was used. Also, the agonist propionate was replaced with 3-hydroxybutyrate (β-hydroxybutyrate), either as a racemic mix of both stereoisomers, or as purified enantiomers D-3-hydroxybutyrate, or L-3-hydroxybutyrate.
(§1) In vivo assays of reporter gene induction were carried out by suspending MMY11 cells transformed as described above to a density of 0.02 OD600/ml in 200 μl SC-glucose (2%) medium lacking tryptophan, uracil and histidine. This medium was supplemented with 10 mM 3-aminotriazole and the β-galactosidase (lacZ) substrate chlorophenolred-β-D-galactopyranoside (CPRG; Boehringer Mannheim) to a concentration of 0.1 mg/ml. Additionally the medium was supplemented with various concentrations of the agonist ligand, propionate (sodium propionate, pH 7.0). To visualise the yellow to red colour change reaction occurring on degradation of CPRG due to β-galactosidase, the medium was buffered to pH 7 with 0.1 M sodium phosphate. The assay was conducted in flat-bottomed sterile 96-well microtitre plates. Plates were incubated for 24 hours at 30° C. without agitation, and absorbance at 570 nm was determined using a Spectrofluor microtitre plate reader (Tecan).

rGPR41 [2] = target: T1, rGPR41; test: Yeast FUS1-lacZ/FUS1-HIS3 reporter assay, rGPR41 in S. cerevisiae MMY22 (Gpa1/Gαo), FDG substrate; type: cell-based; parameters: expressed in transfected cells; host or cells: S. cerevisiae MMY22 (A1, A5; Gpa1/Gαo integrated) or MMY11 + pRS314-Gpa1/Gαo (A4), transformed with p426GPD-rGPR41; conditions: for EC50: read-out: Agonism @ rGPR41 Approx. EC50; for relative agonist activity at rGPR41 (in words): yeast MMY22, carboxylic acid series C1-C12, FIG. 8
Experimental: A study was carried out of the function of rGPR41 following expression in S. cerevisiae MMY22, which is a derivative of S. cerevisiae MMY11 containing a copy of the gene encoding the Gpa1/Gαo transplant chimera described above (in which the 5 C-terminal amino acids of Gpa1 are replaced with the 5 C-terminal amino acids of Gαo) integrated into the genome. To do this, a cassette comprising the GPA1 promoter, nucleotide sequence encoding Gpa1/Gαo, and the terminator was sub-cloned from pRS314-Gpa1/Gαo into the yeast integrating plasmid pRS304 (Sikorski and Hieter, 1989). The resulting plasmid pRS304-Gpa1/Gαo was transformed into MMY11 and integrated into the trp1 locus creating MMY22.
The rGPR41 expression construct described above, p462GPD-rGPR41 was introduced into MMY22 by transformation as described above. Four separate transformants were tested for reporter gene activation in response to propionate. Assays for FUS1-lacZ and FUS1-HIS3 induction were performed as described, except the β-galactosidase (lacZ) substrate fluorescein di-β-D-galactopyranoside (FDG) was used in place of CPRG, and 3-aminotriazole concentration was 5 mM. Also, black-walled 96-well microtitre plates were used, and fluorescence resulting from degradation of FDG to fluorescein due to β-galactosidase was determined using a Spectrofluor microtitre plate reader (Tecan)(excitation wavelength: 485 nm; emmision wavelength: 535 nm).
A series of carboxylic acids and other compounds related to propionate were tested for the ability to activate rGPR41. Experiments were performed as described above, using yeast cells of strain MMY22 transformed with rGPR41 expression plasmid p462GPD-rGPR41, except that the agonist propionate was replaced with one of a series of other compounds, which are listed in table 2 below.
as §1

human GPR41 = target: T2, human GPR41 (Homo sapiens, UniProt O14843); conditions: membranes of HEK293T cells, human GPR41 + Go1α; FIG. 2-4
T2 sequence (O14843 1-346): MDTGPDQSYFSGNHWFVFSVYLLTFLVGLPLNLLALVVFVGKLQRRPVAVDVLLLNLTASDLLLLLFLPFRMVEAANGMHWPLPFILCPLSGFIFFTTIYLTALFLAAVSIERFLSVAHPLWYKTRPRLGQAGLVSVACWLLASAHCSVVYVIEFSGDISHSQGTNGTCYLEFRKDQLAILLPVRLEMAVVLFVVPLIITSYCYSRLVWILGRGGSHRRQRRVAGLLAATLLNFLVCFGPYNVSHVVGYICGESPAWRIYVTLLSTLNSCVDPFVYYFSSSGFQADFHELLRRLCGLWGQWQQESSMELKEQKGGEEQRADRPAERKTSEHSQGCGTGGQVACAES
Experimental: HEK293T cells (HEK293 cells stably expressing the SV40 large T-antigen) were maintained in DMEM containing 10% (v/v) foetal calf serum and 2 mM glutamine. Cells were seeded in 60 mm culture dishes and grown to 60-80% confluency (18-24 h) prior to transfection with pCDNA3 containing the relevant DNA species using Lipofectamine reagent. For transfection, 3 μg of DNA was mixed with 10 μl of Lipofectamine in 0.2 ml of Opti-MEM (Life Technologies Inc.) and was incubated at room temperature for 30 min prior to the addition of 1.6 ml of Opti-MEM. Cells were exposed to the Lipofectamine/DNA mixture for 5 h and 2 ml of 20% (v/v) newborn calf serum in DMEM was then added. Cells were harvested 48-72 h after transfection.
Plasma membrane-containing P2 particulate fractions were prepared from cell pastes frozen at −80° C. after harvest. All procedures were carried out at 4° C. Cell pellets were resuspended in 1 ml of 10 mM Tris-HCl and 0.1 mM EDTA, pH 7.5 (buffer A) and by homogenisation for 20 s with a polytron homogeniser followed by passage (5 times) through a 25-guage needle. Cell lysates were centrifuged at 1,000 g for 10 min in a microcentrifuge to pellet the nuclei and unbroken cells and P2 particulate fractions were recovered by microcentrifugation at 16,000 g for 30 min. P2 particulate fractions were resuspended in buffer A and stored at −80° C. until required. Protein concentrations were determined using the bicinchoninic acid (BCA) procedure (4) using BSA as a standard.
Assays were performed in 96-well format using a method modified from Wieland and Jakobs, 1994. Membranes (10 μg per point) were diluted to 0.083 mg/ml in assay buffer (20 mM HEPES, 100 mM NaCl, 10 mM MgCl2, pH7.4) supplemented with saponin (10 mg/l) and pre-incubated with 40 μM GDP. […] Non-specific binding was determined by the inclusion of 0.6 mM GTP. […] Plates were centrifuged at 1500 g for 5 min and bound [^35S]GTPγS was determined by scintillation counting on a Wallac 1450 microbeta Trilux scintillation counter.

[3] = yeast MMY22 with p462GPD-rGPR41, FDG fluorescence, compounds as salt solutions buffered to pH 7.0

## C[C@@H](O)CC(=O)O [D-b-Hydroxybutyrate]
rGPR41 [1]
  agonism at rGPR41 (in words): similarly active to the racemic mix DL-3-hydroxybutyrate
rGPR41 [2]; [3]
  EC50: ~10000 µM

## NCCCC(=O)O [GABA]
rGPR41 [2]; [3]
  Agonism @ rGPR41 Approx. EC50 (M): Inactive

## O=C(O)CC(=O)O [malonate]
rGPR41 [2]; [3]
  Agonism @ rGPR41 Approx. EC50 (M): Inactive

## C/C=C(\C)C(=O)O [tiglic acid]
rGPR41 [2]; [3]
  Agonism @ rGPR41 Approx. EC50 (M): Inactive

## CCCCCCCCCCCCCCCCCC(=O)O [stearate]
rGPR41 [2]; [3]
  Agonism @ rGPR41 Approx. EC50 (M): Inactive

## O=C(O)CO [glycolate]
rGPR41 [2]; [3]
  Agonism @ rGPR41 Approx. EC50 (M): weak active

## CCC(O)C(=O)O (stereo not drawn) [alpha-hydroxybutyrate]
rGPR41 [2]; [3]
  Agonism @ rGPR41 Approx. EC50 (M): Inactive

## O=C(O)C(O)C(O)C(=O)O (stereo not drawn) [Tartrate]
rGPR41 [2]; [3]
  Agonism @ rGPR41 Approx. EC50 (M): Inactive

## O=C(O)c1cccnc1 [nicotinic acid]
rGPR41 [2]; pH 7
  Agonism @ rGPR41 Approx. EC50 (M): Inactive

## O=CO [Formate]
rGPR41 [2]; pH 7
  Agonism @ rGPR41 Approx. EC50 (M): Weak active

## O=C(O)/C=C/C(=O)O [Fumarate]
rGPR41 [2]
  relative agonist activity at rGPR41 (in words): either inactive or had very weak activities
rGPR41 [2]; [3]
  Agonism @ rGPR41 Approx. EC50 (M): Inactive

## CC(C)=O [Acetone]
rGPR41 [2]; pH 7
  Agonism @ rGPR41 Approx. EC50 (M): Inactive

## CC(=O)CC(=O)O [Acetoacetate]
rGPR41 [2]; [3]
  Agonism @ rGPR41 Approx. EC50 (M): weak active

## CCCCCCCCCCCCCCCC(=O)O [palmitate]
rGPR41 [2]; [3]
  Agonism @ rGPR41 Approx. EC50 (M): Inactive

## CCCCC/C=C\C/C=C\CCCCCCCC(=O)O [Linoleic acid]
rGPR41 [2]; [3]
  Agonism @ rGPR41 Approx. EC50 (M): Toxic/Inactive

## CCCCCC(=O)O [Caproic C6 acid]
rGPR41 [2]; [3]
  EC50: ~30 µM

## CCCCCCCCC(=O)O [Nonanoic C9 acid]
rGPR41 [2]
  relative agonist activity at rGPR41 (in words): inactive
rGPR41 [2]; [3]
  Agonism @ rGPR41 Approx. EC50 (M): inactive/toxic

## O=C(O)C(=O)O [Oxalate]
rGPR41 [2]; [3]
  EC50: ~3000 µM

## CCCCCC/C=C\CCCCCCCC(=O)O [Palmitoleic acid]
rGPR41 [2]; [3]
  Agonism @ rGPR41 Approx. EC50 (M): Toxic/inactive

## N[C@@H](CCC(=O)O)C(=O)O [Glutamate]
rGPR41 [2]; [3]
  Agonism @ rGPR41 Approx. EC50 (M): Inactive

## CN[C@H](CC(=O)O)C(=O)O [NMDA]
rGPR41 [2]; [3]
  Agonism @ rGPR41 Approx. EC50 (M): Inactive

## O=C(O)CCCO [γ-hydroxybutyrate]
rGPR41 [2]; [3]
  EC50: ~10000 µM

## O=C(O)/C=C\C(=O)O [maleate]
rGPR41 [2]; [3]
  Agonism @ rGPR41 Approx. EC50 (M): Inactive

## O=CC(=O)O [Glyoxylic acid]
rGPR41 [2]; [3]
  EC50: ~50000 µM

## NCC(=O)O [Glycine]
rGPR41 [2]; [3]
  Agonism @ rGPR41 Approx. EC50 (M): Inactive

## CC(N)=O [acetamide]
rGPR41 [2]; [3]
  Agonism @ rGPR41 Approx. EC50 (M): very weak active

## CC(O)C(=O)O (stereo not drawn) [lactate]
rGPR41 [2]; [3]
  Agonism @ rGPR41 Approx. EC50 (M): Inactive

## methyl-2-imidazoline
rGPR41 [2]; [3]
  Agonism @ rGPR41 Approx. EC50 (M): Toxic/inactive

## CC(O)CC(=O)O (racemic) [DL-b-Hydroxybutyrate]
Human GPR41
  stimulation of [35S]GTPγS binding: elevate [^35S]GTPγS binding
rGPR41 [1]
  agonism at rGPR41 (in words): agonist at rGPR41 with a potency similar or slightly less than acetate
rGPR41 [1]; FIG. 9, listed as 3-hydroxybutyrate
  lowest concentrations causing detectable activation of rGPR41 (threshold): approximately 1 mM
rGPR41 [2]; [3]
  EC50: ~10000 µM

## O=C(O)CC(O)(CC(=O)O)C(=O)O [Citrate]
rGPR41 [2]
  relative agonist activity at rGPR41 (in words): either inactive or had very weak activities
rGPR41 [2]; [3]
  Agonism @ rGPR41 Approx. EC50 (M): Inactive

## CCCCCCCCCCCC(=O)O [Lauric C12 acid]
rGPR41 [2]
  relative agonist activity at rGPR41 (in words): inactive
rGPR41 [2]; [3]
  Agonism @ rGPR41 Approx. EC50 (M): inactive/toxic

## CCCCCCC(=O)O [Heptanoic C7 acid]
rGPR41 [2]; [3]
  EC50: ~100 µM

## O=C1O[C@H]([C@@H](O)CO)C(O)=C1O [Ascorbate]
rGPR41 [2]; [3]
  Agonism @ rGPR41 Approx. EC50 (M): Inactive

## CS(=O)(=O)O [methylsulphonate]
rGPR41 [2]; [3]
  Agonism @ rGPR41 Approx. EC50 (M): Inactive

## CCCCCCCC/C=C\CCCCCCCC(=O)O [oleate]
rGPR41 [2]; [3]
  Agonism @ rGPR41 Approx. EC50 (M): Inactive

## C[C@H](N)C(=O)O [Alanine]
rGPR41 [2]; [3]
  Agonism @ rGPR41 Approx. EC50 (M): Inactive

## O=C(O)c1ccccc1 [benzoate]
rGPR41 [2]; pH 7
  Agonism @ rGPR41 Approx. EC50 (M): Toxic

## CCCC(=O)O [n-Butyrate]
rGPR41 [2]; [3]
  EC50: ~50 µM

## O=C(O)CCC(=O)O [Succinate]
rGPR41 [2]
  relative agonist activity at rGPR41 (in words): either inactive or had very weak activities
rGPR41 [2]; [3]
  Agonism @ rGPR41 Approx. EC50 (M): Inactive

## C=CCCC(=O)O [4-pentenoate]
rGPR41 [2]; [3]
  EC50: ~30 µM

## CCCCCCCCCCC(=O)O [Undecanoic C11 acid]
rGPR41 [2]
  relative agonist activity at rGPR41 (in words): inactive
rGPR41 [2]; [3]
  Agonism @ rGPR41 Approx. EC50 (M): inactive/toxic

## CCCCCCCCCC(=O)O [Decanoic C10 acid]
rGPR41 [2]
  relative agonist activity at rGPR41 (in words): inactive
rGPR41 [2]; [3]
  Agonism @ rGPR41 Approx. EC50 (M): inactive/toxic

## O=C(O)C(F)(F)F [Trifluoroacetate]
rGPR41 [2]; [3]
  Agonism @ rGPR41 Approx. EC50 (M): weak active

## CC(=O)C(=O)O [pyruvate]
rGPR41 [2]; [3]
  Agonism @ rGPR41 Approx. EC50 (M): Inactive

## O=CC=O [Glyoxal]
rGPR41 [2]; pH 7
  Agonism @ rGPR41 Approx. EC50 (M): Toxic

## CCCCC(=O)O [Pentanoate (n-valerate)]
rGPR41 [2]
  relative agonist activity at rGPR41 (in words): similarly or slightly more active than propionate
rGPR41 [2]; [3]
  EC50: ~3 µM

## C[C@H](O)CC(=O)O [L-b-Hydroxybutyrate]
rGPR41 [2]; [3]
  EC50: ~10000 µM

## CC(C)(C)C(=O)O [pivalic acid]
rGPR41 [2]; [3]
  EC50: ~500 µM

## CC(C)C(=O)O [Isobutyrate]
rGPR41 [2]; [3]
  EC50: ~30 µM

## O=C(O)CC(=O)C(=O)O [Oxaloacetate]
rGPR41 [2]; [3]
  Agonism @ rGPR41 Approx. EC50 (M): Inactive

## CCCCCCCC(=O)O [Caprylic C8 acid]
rGPR41 [2]; [3]
  Agonism @ rGPR41 Approx. EC50 (M): weak active
